# Experimental data from patent US6730332B2, “Herbal composition having antiallergic properties and a process for the preparation thereof” (Natural Remedies Pvt. Ltd., priority 2000, dated 2004).
# Legend:
# [1] = tested on: mast cells; assay: mast cell stabilization bioassay; format: cell-based, rats
# Text: The present invention is based on our experience and knowledge about the usage of various herbs along with our in depth studies on traditional literature. For this project a number of plants and plant preparations were selected for detailed studies. The selected plants/extracts were then subjected to the mast cell stabilization bioassay. This bioassay has been reported to be one of the important tools in detecting the substances having antiallergic activity. In this context reference may be made to “Rajashekharan M. et al, J. Drug Dev., 1989, 2(3), 179-182.” Mast cells are basophilic cells in subcutaneous and connective tissue. They are found in large numbers in mesentery of rats and contain numerous membrane bounded granules, which contain strong pharmacologically active mediators such as histamine, SRS-A, Serotonin, bradykinin etc. The role of mast cells in pathogenesis of allergic disease has been well recognized. Mast cells contain receptors for Fc fragment of IgE antibodies. Therefore, IgE antibodies formed on exposure to antigen will combine with the mast cells. On subsequent re-exposure to the same antigen, there occurs an antigen antibody reaction which will initiate mast cell de-granulation in a similar manner as that of de-granulating agents like carbachol or the compound which is the condensation product of N-methyl-p-methoxyphenylamine with formaldehyde. […]
# [2] = tested on: mouse paw edema; assay: Compound 48/80 induced mouse paw edema; format: in vivo, mice; details: 1 mg/kg mouse body weight, P<0.05
# Experimental: Compound 48/80 (Condensation product of N-methyl-p-methoxyphenylamine with formaldehyde) was used to induce mouse paw edema in mice. In this context the reference may be made to Nair A M, Tamhankar C P and Saraf M N (1995) Indian drugs, 32(6), 277-282. The animals were treated with NR-A2 at doses of 175, 225 and 275 mg/kg body weight orally 30 days prior to the test. Standard group received Ketotifen in the dose of 1 mg/kg b.w.
# [3] = tested on: active paw anaphylaxis; assay: Active paw anaphylaxis in mice; format: in vivo; details: 14 mg/kg body weight, P<0.05
# Experimental: Active paw anaphylaxis in mice was studied using egg albumin as the antigen adsorbed on aluminum hydroxide. In this context the reference may be made to Ghoosi R. B, Bhide M. B, (1981) Allergy Appl. Immunol., 15, 53. and Nair A. M. et al. (1995) Indian Drugs, 32(6), 277-282. The mice were dosed with NR-A2 at different doses orally in 0.5% CMC for 30 days. Prednisolone was taken as the standard. On 31st day they were sensitized with antigen, and the treatment continued. On 12^Th day after sensitization the animals were re-challenged with egg albumin in saline subcutaneously in plantar region of right hind paw while the contralateral paw received an equal volume of saline. Paw thickness was measured using pocket thickness gauge (Mitutoyo Manufacturing Co. Japan) 15 minutes after the challenge. The difference in paw thickness of right paw compared to the left paw, reflected the edema due to antigen-antibody reaction.
# [4] = tested on: systemic anaphylaxis; assay: Compound 48/80 induced systemic anaphylaxis in rats; format: in vivo; details: 10 mg/kg
# Text: The effect of NR-A2 in compound 48/80 (Condensation product of N-methyl-p-methoxyphenylamine with formaldehyde) induced systemic anaphylaxis was studied in rats. In this context the reference may be made to Y. M. Lee, Kim D. K, (1996) Journal of Ethnopharmacology, 54, 77-84. The animals were divided into five groups, one served as control, one standard and three groups for NR-A2. The standard (Prednisolone), NRA-2 & vehicle were given 30 days prior to intra-peritoneal administration of compound 48/80 (Condensation product of N-methyl-p-methoxyphenylamine with formaldehyde). The dose of Prednisolone was 10 mg/kg while those of NR-A2 were 150, 250, 350 mg/kg b.w. Number of deaths per group within one hour were calculated.
# [5] = tested on: Freund's adjuvant induced paw edema; assay: Adjuvant induced arthritis; format: in vivo, albino wistar rats; details: standard, rats, P<0.05
# Experimental: Freund's adjuvant is a mixture of dead mycobacterium finely ground in liquid paraffin at a concentration of 5 mg/ml. When injected in hind paw it produces an edema characterised as a bi-phasic response, which persists up to 21 days. The injection of Freund's adjuvant in rat hind paw produces conditions similar to rheumatoid arthritis, a delayed hypersensitivity reaction.
# NR-A2 was administered to albino wistar rats orally at doses of 150, 250 and 350 mg to body weight for 30 days before and 21 days after injecting Freund's adjuvant. Paw volume was measured using plethesmograph.
smiles,measurement,setting,value
O=C([O-])c1cc(=O)c2c(OCC(O)COc3cccc4oc(C(=O)[O-])cc(=O)c34)cccc2o1.[Na+].[Na+] [Disodiumchromoglycate],EC50 values,"[1]; mast cell stabilization assay, screening of plant extracts (Table 1)",3.68 µg/mL
same,"EC50, mast cell stabilizing activity",[1]; selected prototypes (Table 2),3.66 µg/mL
CN1CCC(=C2c3ccccc3CC(=O)c3sccc32)CC1 [Ketotifen],inhibition of paw edema,[2],64.22%
C[C@]12C=CC(=O)C=C1CC[C@@H]1[C@@H]2[C@@H](O)C[C@@]2(C)[C@H]1CC[C@]2(O)C(=O)CO [Prednisolone],inhibition of paw edema,[3],74.03%
same,inhibition of compound 48/80 induced anaphylaxis (deaths within one hour),[4],62.97%
same,inhibition of adjuvant paw edema,[5],95.63%
